Test results reported in patent publication US12590062B2, “PD-1/PD-L1 inhibitors” (Gilead Sciences, Inc., priority 2017, dated 2026).

Experiments:
PD-1/PD-L1 = PD-1/PD-L1 (Homo sapiens, UniProt Q9NZQ7); experiment: PD-1/PD-L1 biochemical protein-protein interaction assay (ALPHA); type: binding; conditions: 0.3 nM His tagged PD-L1, 2.5 nM biotinylated Fc-PD-1, 60 minutes at 25° C., read-out: IC50 PD-L1-PD-1 Alpha IC50-mono PD-L1-fcP-D1
Outline: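 Compounds are tested for blocking the PD-1/PD-L1 extracellular-domain interaction using an ALPHA bead assay, in which inhibition lowers the luminescent signal. Reactions run 60 min at 25° C with 0.3 nM His-PD-L1 and 2.5 nM biotinylated Fc-PD-1. IC50 values come from four-parameter fits.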

PD-1/PD-L1 interaction = target: T1, PD-1/PD-L1 interaction (Homo sapiens, UniProt Q9NZQ7); experiment: PD-1/PD-L1 NFAT reporter co-culture assay; type: cell-based; conditions: Jurkat PD-1 NFAT-luciferase cells co-cultured with aAPC-PD-L1 CHO cells, 6 hrs at 37° C.; read-out: EC50 NFAT Luciferase
T1 construct: expressed in transfected cells; host or cells: CHO cells (aAPC-PD-L1) co-cultured with Jurkat cells overexpressing PD-1 and an NFAT-luciferase reporter
T1 sequence (Q9NZQ7 19-290): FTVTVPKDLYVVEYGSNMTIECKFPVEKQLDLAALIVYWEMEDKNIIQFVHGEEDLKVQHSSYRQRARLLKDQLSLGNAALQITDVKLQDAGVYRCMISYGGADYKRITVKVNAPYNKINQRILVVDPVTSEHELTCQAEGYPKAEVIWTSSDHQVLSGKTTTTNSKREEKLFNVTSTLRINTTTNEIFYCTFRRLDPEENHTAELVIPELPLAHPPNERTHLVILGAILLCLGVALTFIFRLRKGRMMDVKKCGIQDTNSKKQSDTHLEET
Outline: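 Luminescence (ONE-Glo) after 6 h, 37 °C co-culture reports NFAT-luciferase in PD-1 Jurkat cells, which PD-1/PD-L1 engagement suppresses. Partner cells: CHO expressing anti-CD3 and PD-L1. EC50 from four-parameter dose-response fit.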

Chain of PD-1/PD-L1 (Q9NZQ7 19-238 limits assumed): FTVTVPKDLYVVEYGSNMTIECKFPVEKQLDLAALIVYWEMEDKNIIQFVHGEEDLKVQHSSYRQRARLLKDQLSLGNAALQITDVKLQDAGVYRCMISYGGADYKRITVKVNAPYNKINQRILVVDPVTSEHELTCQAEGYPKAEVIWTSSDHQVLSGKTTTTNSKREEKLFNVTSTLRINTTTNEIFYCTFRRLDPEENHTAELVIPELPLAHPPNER

Row | IC50 (PD-1/PD-L1) | EC50 (PD-1/PD-L1 interaction) | SMILES
1 | 0.0005 µM | ≥ 50 µM | COC(=O)COc1nc(OCc2cccc(-c3cccc(COc4nc(OCC(=O)OC)c(CNC[C@@H](O)CC(=O)O)cc4Br)c3C)c2C)c(Br)cc1CNC[C@@H](O)CC(=O)O [Example 150, (3S,3′S)-4,4′-((((((2,2′-dimethyl-[1,1′-biphenyl]-3,3′-diyl)bis(methylene))bis(oxy))bis(5-bromo-2-(2-methoxy-2-oxoethoxy)pyridine-6,3-diyl))bis(methylene))bis(azanediyl))bis(3-hydroxybutanoic acid)]
2 | 0.0022 µM | ≥ 50 µM | C=CCOc1nc(OCc2cccc(-c3cccc(COc4nc(OCC=C)c(CNC[C@@H](O)CC(=O)O)cc4Br)c3C)c2C)c(Br)cc1CNC[C@@H](O)CC(=O)O [Example 151, (3S,3′S)-4,4′-((((((2,2′-dimethyl-[1,1′-biphenyl]-3,3′-diyl)bis(methylene))bis(oxy))bis(2-(allyloxy)-5-bromopyridine-6,3-diyl))bis(methylene))bis(azanediyl))bis(3-hydroxybutanoic acid)]
3 | 0.0038 µM | ≥ 50 µM | Cc1c(COc2nc(OCC(F)(F)F)c(CNC[C@@H](O)CC(=O)O)cc2Br)cccc1-c1cccc(COc2nc(OCC(F)(F)F)c(CNC[C@@H](O)CC(=O)O)cc2Br)c1C [Example 154, (3S,3′S)-4,4′-((((((2,2′-dimethyl-[1,1′-biphenyl]-3,3′-diyl)bis(methylene))bis(oxy))bis(5-bromo-2-(2,2,2-trifluoroethoxy)pyridine-6,3-diyl))bis(methylene))bis(azanediyl))bis(3-hydroxybutanoic acid)]
4 | 0.0023 µM | 34.2 µM | Cc1nc(OCc2cccc(-c3cccc(COc4ccc(CNC[C@@H](O)CC(=O)O)c(C)n4)c3C)c2C)ccc1CNC[C@@H](O)CC(=O)O [Example 156, (3S,3′S)-4,4′-((((((2,2′-dimethyl-[1,1′-biphenyl]-3,3′-diyl)bis(methylene))bis(oxy))bis(2-methylpyridine-6,3-diyl))bis(methylene))bis(azanediyl))bis(3-hydroxybutanoic acid)]
5 | 0.002 µM | 28.1 µM | Cc1c(COc2ccc(CNC[C@@H](O)CC(=O)O)c(OCCN3CCOCC3)n2)cccc1-c1cccc(COc2ccc(CNC[C@@H](O)CC(=O)O)c(OCCN3CCOCC3)n2)c1C [Example 158, (3S,3′S)-4,4′-((((((2,2′-dimethyl-[1,1′-biphenyl]-3,3′-diyl)bis(methylene))bis(oxy))bis(2-(2-morpholinoethoxy)pyridine-6,3-diyl))bis(methylene))bis(azanediyl))bis(3-hydroxybutanoic acid)]
6 | 0.0028 µM | 0.31 µM | Cc1c(COc2cc(OCc3cncc(C#N)c3)c(CNC[C@@H](O)C(=O)O)cc2Cl)cccc1-c1cccc(COc2cc(OCc3cncc(C#N)c3)c(CNC[C@@H](O)C(=O)O)cc2Cl)c1C [Example 161, (2R,2′R)-3,3′-((((((2,2′-dimethyl-[1,1′-biphenyl]-3,3′-diyl)bis(methylene))bis(oxy))bis(5-chloro-2-((5-cyanopyridin-3-yl)methoxy)-4,1-phenylene))bis(methylene))bis(azanediyl))bis(2-hydroxypropanoic acid)]
7 | 0.0006 µM | 0.343 µM | Cc1c(COc2cc(OCc3cncc(C#N)c3)c(CNCc3nnn[nH]3)cc2Cl)cccc1-c1cccc(COc2cc(OCc3cncc(C#N)c3)c(CNCc3nnn[nH]3)cc2Cl)c1C [Example 163, 5,5′-((((((2,2′-dimethyl-[1,1′-biphenyl]-3,3′-diyl)bis(methylene))bis(oxy))bis(6-((((1H-tetrazol-5-yl)methyl)amino)methyl)-4-chloro-3,1-phenylene))bis(oxy))bis(methylene))dinicotinonitrile]
8 | 0.0002 µM | 0.5 µM | Cc1c(COc2cc(OCc3cncc(C#N)c3)c(CNCCCC(=O)O)cc2Cl)cccc1-c1cccc(COc2cc(OCc3cncc(C#N)c3)c(CNCCCC(=O)O)cc2Cl)c1C [Example 164, 4,4′-((((((2,2′-dimethyl-[1,1′-biphenyl]-3,3′-diyl)bis(methylene))bis(oxy))bis(5-chloro-2-((5-cyanopyridin-3-yl)methoxy)-4,1-phenylene))bis(methylene))bis(azanediyl))dibutyric acid]
9 | 0.0001 µM | 20.6 µM | Cc1c(COc2ccc(CNC[C@@H](O)CC(=O)O)cc2C#N)cccc1-c1cccc(COc2ccc(CNC[C@@H](O)CC(=O)O)cc2C#N)c1C [Example 177, (3S,3′S)-4,4′-((((((2,2′-dimethyl-[1,1′-biphenyl]-3,3′-diyl)bis(methylene))bis(oxy))bis(3-cyano-4,1-phenylene))bis(methylene))bis(azanediyl))bis(3-hydroxybutanoic acid)]
10 | 0.0046 µM | 24.8 µM | COc1cc(C(=O)N2CCc3c(-c4cccc5c4CCN5C(=O)c4ccc(CNC[C@@H](O)CC(=O)O)c(OC)c4)cccc32)ccc1CNC[C@@H](O)CC(=O)O [Example 180, (3S,3′S)-4,4′-(((([4,4′-biindoline]-1,1′-dicarbonyl)bis(2-methoxy-4,1-phenylene))bis(methylene))bis(azanediyl))bis(3-hydroxybutanoic acid)]
11 | 0.0033 µM | 30.9 µM | O=C(O)C[C@H](O)CNCc1ccc(C(=O)N2CCc3c(-c4cccc5c4CCN5C(=O)c4ccc(CNC[C@@H](O)CC(=O)O)cc4)cccc32)cc1 [Example 181, (3S,3′S)-4,4′-(((([4,4′-biindoline]-1,1′-dicarbonyl)bis(4,1-phenylene))bis(methylene))bis(azanediyl))bis(3-hydroxybutanoic acid)]
12 | 0.0188 µM | 1.51 µM | COc1nc(OCc2cccc(-c3cccc(COc4ccc(CNCCO)c(OC)n4)c3Cl)c2Cl)ccc1CNCCO [Example 186, 2,2′-((((((2,2′-Dichloro-[1,1′-biphenyl]-3,3′-diyl)bis(methylene))bis(oxy))bis(2-methoxypyridine-6,3-diyl))bis(methylene))bis(azanediyl))bis(ethan-1-ol)]
13 | 0.0006 µM | 3.2 µM | COc1nc(OCc2cccc(-c3cccc(COc4ccc(CNC[C@@H](O)CC(=O)O)c(OC)n4)c3Cl)c2Cl)ccc1CNC[C@@H](O)CC(=O)O [Example 187, (3S,3′S)-4,4′-((((((2,2′-Dichloro-[1,1′-biphenyl]-3,3′-diyl)bis(methylene))bis(oxy))bis(2-methoxypyridine-6,3-diyl))bis(methylene))bis(azanediyl))bis(3-hydroxybutanoic acid)]
14 | 0.0003 µM | 1.55 µM | COc1nc(OCc2cccc(-c3cccc(COc4ccc(CNC[C@H](O)CC(=O)O)c(OC)n4)c3Cl)c2Cl)ccc1CNC[C@H](O)CC(=O)O [Example 188, (3R,3′R)-4,4′-((((((2,2′-Dichloro-[1,1′-biphenyl]-3,3′-diyl)bis(methylene))bis(oxy))bis(2-methoxypyridine-6,3-diyl))bis(methylene))bis(azanediyl))bis(3-hydroxybutanoic acid)]
15 | 0.188 µM | 2.15 µM | Cc1c(COc2cc(OCc3cncc(C#N)c3)c(CNCCO)cc2Cl)cccc1-c1cccc(COc2cc(OCC3CC3)c(CNCCO)cc2Cl)c1C [Example 199, 5-((4-Chloro-5-((3′-((2-chloro-5-(cyclopropylmethoxy)-4-(((2-hydroxyethyl)amino)methyl)phenoxy)methyl)-2,2′-dimethyl-[1,1′-biphenyl]-3-yl)methoxy)-2-(((2-hydroxyethyl)amino)methyl)phenoxy)methyl)nicotinonitrile]
16 | 0.138 µM | 0.893 µM | Cc1c(COc2cc(OCc3cncc(C#N)c3)c(CNCCO)cc2Cl)cccc1-c1cccc(COc2cc(OCc3ccc(F)c(C#N)c3)c(CNCCO)cc2Cl)c1C [Example 200, 5-((4-Chloro-5-((3′-((2-chloro-5-((3-cyano-4-fluorobenzyl)oxy)-4-(((2-hydroxyethyl)amino)methyl)phenoxy)methyl)-2,2′-dimethyl-[1,1′-biphenyl]-3-yl)methoxy)-2-(((2-hydroxyethyl)amino)methyl)phenoxy)methyl)nicotinonitrile]
17 | 0.0312 µM | 1.11 µM | COc1nc(OCc2cccc(-c3cccc(COc4cc(OCc5cncc(C#N)c5)c(CNCCO)cc4Cl)c3C)c2C)ccc1CNCCO [Example 201, 5-((4-Chloro-2-(((2-hydroxyethyl)amino)methyl)-5-((3′-(((5-(((2-hydroxyethyl)amino)methyl)-6-methoxypyridin-2-yl)oxy)methyl)-2,2′-dimethyl-[1,1′-biphenyl]-3-yl)methoxy)phenoxy)methyl)nicotinonitrile]
18 | 0.0032 µM | 1.92 µM | COc1nc(OCc2cccc(-c3cccc(COc4cc(OCc5cncc(C#N)c5)c(CNC[C@@H](O)CC(=O)O)cc4Cl)c3C)c2C)ccc1CNCCO [Example 202, (S)-4-((5-Chloro-2-((5-cyanopyridin-3-yl)methoxy)-4-((3′-(((5-(((2-hydroxyethyl)amino)methyl)-6-methoxypyridin-2-yl)oxy)methyl)-2,2′-dimethyl-[1,1′-biphenyl]-3-yl)methoxy)benzyl)amino)-3-hydroxybutanoic acid]
19 | 0.0257 µM | 0.927 µM | Cc1c(COc2cc(OCc3cncc(C#N)c3)c(CNCCO)cc2Cl)cccc1-c1cccc(COc2ccc(CNCCO)cc2C(F)(F)F)c1C [Example 204, 5-((4-Chloro-2-(((2-hydroxyethyl)amino)methyl)-5-((3′-((4-(((2-hydroxyethyl)amino)methyl)-2-(trifluoromethyl)phenoxy)methyl)-2,2′-dimethyl-[1,1′-biphenyl]-3-yl)methoxy)phenoxy)methyl)nicotinonitrile]
